This is an account of results in ChEMBL document CHEMBL4330126 (2019).

Activity calls are given as the source filed them. No cut-off for these calls is given here.

As a reminder, the inhibition is the share of the control response that was lost under treatment.

Assay [1] concerns RAW264.7. As to the kind of experiment: Antiinflammatory activity in mouse RAW264.7 cells assessed as decrease in LPS-induced IL-1beta level at 10^-3 M by ELISA. In kind it is functional. Further details: scale not given: the % may be the effect or the level left. Background: In an ELISA, binding on a coated surface is turned into a signal by an enzyme label.
Assay [2] has as its system RAW264.7. As to the kind of experiment: Inhibition of LPS-induced JNK-phosphorylation in mouse RAW264.7 cells at 0.5 x 10^-3 to 10^-3 M after 24 hrs by Western blot analysis. In kind it is cell-based. A general note: A western blot detects proteins with antibodies after separation by electrophoresis.
The target of assay [3] is MAP kinase p38 (Mus musculus) (UniProt P47811+O08911+Q9WUI1+Q9Z1B7). Put plainly: Inhibition of LPS-induced p38 phosphorylation in mouse RAW264.7 cells at 0.5 x 10^-3 to 10^-3 M after 24 hrs by Western blot analysis. The format is cell-based.
Assay [4] deals with RAW264.7. Put plainly: Inhibition of LPS-stimulated NFkappaB/MAPK signaling activation in mouse RAW264.7 cells assessed as decrease in phosphorylated IKK protein level level after 24 hrs by Western blot analysis. In kind it is cell-based.
The test system of assay [5] is RAW264.7. Put plainly: Inhibition of LPS-stimulated NFkappaB/MAPK signaling activation in mouse RAW264.7 cells assessed as increase in IkappaB protein level after 24 hrs by Western blot analysis. In kind it is cell-based.
Assay [6] relates to RAW264.7. Put plainly: Inhibition of LPS-induced morphological changes in mouse RAW264.7 cells at 0.5 x 10^-3 to 10^-3 M after 24 hrs by […] fluorescence microscopy. The format is functional, cell-based.
Assay [7] relates to RAW264.7. Put plainly: Inhibition of LPS-induced ROS generation in mouse RAW264.7 cells at 0.5 x 10^-3 to 10^-3 M after 24 hrs by DCFDA staining-based flow cytometric analysis. In kind it is functional, cell-based.
The test system of assay [8] is RAW264.7. As to the kind of experiment: Inhibition of LPS-induced ROS generation in mouse RAW264.7 cells at 0.5 x 10^-3 to 10^-3 M after 24 hrs by DCFDA staining-based fluorescence microscopy. In kind it is functional, cell-based.
Assay [9] concerns RAW264.7. As to the kind of experiment: Anti-inflammatory activity in mouse RAW264.7 cells assessed as inhibition of LPS-induced iNOS level at 10^-3 M by Western blot analysis. In kind it is functional, cell-based.
Assay [10] concerns RAW264.7. Put plainly: Anti-inflammatory activity in mouse RAW264.7 cells assessed as inhibition of LPS-induced iNOS mRNA expression at 10^-3 M by qRT-PCR analysis. In kind it is functional, cell-based. For orientation: Quantitative PCR measures a nucleic acid by following its amplification.
Assay [11] relates to RAW264.7. As to the kind of experiment: Antiinflammatory activity against mouse RAW264.7 cells assessed as inhibition of LPS-induced nitric oxide production after 24 hrs by Griess assay. In kind it is functional, cell-based.
For assay [12], the system named is RAW264.7. As to the kind of experiment: Anti-inflammatory activity in mouse RAW264.7 cells assessed as inhibition of LPS-induced IL-8 mRNA expression at 10^-3 M after 24 hrs by qRT-PCR analysis. In kind it is functional. Particulars: RAW264.7, 24 h.
Assay [13] deals with RAW264.7. As to the kind of experiment: Anti-inflammatory activity in mouse RAW264.7 cells assessed as inhibition of LPS-induced TNF-alpha mRNA expression at 10^-3 M after 24 hrs by qRT-PCR analysis. The format is functional. Conditions: RAW264.7, 24 h.
The subject of assay [14] is RAW264.7. Put plainly: Anti-inflammatory activity in mouse RAW264.7 cells assessed as inhibition of LPS-induced IL-6 mRNA expression at 10^-3 M after 24 hrs by qRT-PCR analysis. The format is functional. Particulars: RAW264.7, 24 h.
Assay [15] has as its system RAW264.7. As to the kind of experiment: Anti-inflammatory activity in mouse RAW264.7 cells assessed as inhibition of LPS-induced IL-1beta mRNA expression at 10^-3 M after 24 hrs by qRT-PCR analysis. Particulars: RAW264.7, 24 h. In kind it is functional.
The test system of assay [16] is RAW264.7. As to the kind of experiment: Antiinflammatory activity in mouse RAW264.7 cells assessed as decrease in LPS-induced IL-8 level at 10^-3 M by ELISA. The format is functional. Further details: scale not given: the % may be the effect or the level left.
Assay [17] concerns RAW264.7. As to the kind of experiment: Antiinflammatory activity in mouse RAW264.7 cells assessed as decrease in LPS-induced TNF-alpha level at 10^-3 M by ELISA. The format is functional. Also on record: scale not given: the % may be the effect or the level left.
Assay [18] relates to RAW264.7. Put plainly: Antiinflammatory activity in mouse RAW264.7 cells assessed as decrease in LPS-induced IL-6 level at 10^-3 M by ELISA. In kind it is functional. Also on record: scale not given: the % may be the effect or the level left.
In assay [19] the target is Mitogen-activated protein kinase 1 and 3 (ERK2 and ERK1) (Mus musculus) (UniProt P63085+Q63844). Put plainly: Inhibition of LPS-induced ERK-1/2 phosphorylation in mouse RAW264.7 cells at 0.5 x 10^-3 to 10^-3 M after 24 hrs by Western blot analysis. In kind it is cell-based.
Chain of Mitogen-activated protein kinase 1 and 3 (ERK2 and ERK1) (Mus musculus) (P63085 whole entry, looked up): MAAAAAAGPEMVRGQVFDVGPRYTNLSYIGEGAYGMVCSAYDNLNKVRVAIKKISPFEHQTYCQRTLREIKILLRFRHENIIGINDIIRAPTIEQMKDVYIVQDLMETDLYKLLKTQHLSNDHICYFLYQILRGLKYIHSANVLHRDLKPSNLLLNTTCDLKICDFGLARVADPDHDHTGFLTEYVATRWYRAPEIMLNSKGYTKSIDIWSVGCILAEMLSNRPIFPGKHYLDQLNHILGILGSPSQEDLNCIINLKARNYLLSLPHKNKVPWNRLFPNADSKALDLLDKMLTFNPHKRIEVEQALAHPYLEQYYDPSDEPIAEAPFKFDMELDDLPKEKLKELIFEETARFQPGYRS
Chain of Mitogen-activated protein kinase 1 and 3 (ERK2 and ERK1) (Mus musculus) (Q63844 whole entry, looked up): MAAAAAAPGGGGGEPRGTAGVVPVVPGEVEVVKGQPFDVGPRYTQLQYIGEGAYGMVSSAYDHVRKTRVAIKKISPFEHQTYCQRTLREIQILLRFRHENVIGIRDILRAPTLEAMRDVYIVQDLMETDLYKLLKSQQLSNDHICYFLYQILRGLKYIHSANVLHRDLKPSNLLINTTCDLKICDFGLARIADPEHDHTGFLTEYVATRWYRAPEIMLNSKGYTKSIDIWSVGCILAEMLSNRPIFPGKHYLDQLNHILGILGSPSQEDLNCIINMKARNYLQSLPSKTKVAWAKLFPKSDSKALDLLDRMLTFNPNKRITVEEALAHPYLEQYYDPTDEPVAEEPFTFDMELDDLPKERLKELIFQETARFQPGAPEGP
For assay [20], the system named is RAW264.7. Put plainly: Inhibition of LPS-stimulated NFkappaB/MAPK signaling activation in mouse RAW264.7 cells assessed as decrease in phosphorylated c-Jun protein level at 0.5 x 10^-3 to 10^-3 M after 24 hrs by Western blot analysis. The format is cell-based.
For assay [21], the system named is RAW264.7. As to the kind of experiment: Inhibition of LPS-stimulated NFkappaB/MAPK signaling activation in mouse RAW264.7 cells assessed as decrease in JunB protein level at 0.5 x 10^-3 to 10^-3 M after 24 hrs by Western blot analysis. In kind it is cell-based.

As to `CC1(C)[C@@H](O[C@H]2O[C@H](C(=O)[O-])[C@@H](O)[C@H](O)[C@H]2O[C@@H]2O[C@H](C(=O)[O-])[C@@H](O)[C@H](O)[C@H]2O)CC[C@]2(C)[C@H]3C(=O)C=C4[C@@H]5C[C@@](C)(C(=O)O)CC[C@]5(C)CC[C@@]4(C)[C@]3(C)CC[C@@H]12.O.O.O.O.[Mg+2]`, the Activity in the assay with RAW264.7 [1] is reported as 33.6%; in the assay with RAW264.7 [16], 49.3%; in the assay on RAW264.7 [17], 17.3%; with RAW264.7 [18] it was 28.7%. The inhibition result (in the assay on RAW264.7 [2]; in [3]; with RAW264.7 [6]; in the assay on RAW264.7 [7]; with RAW264.7 [8]; in the assay on RAW264.7 [9]) was “Active” each time. Moreover, the inhibition entry (in the assay on RAW264.7 [10]; in [19]; in the assay with RAW264.7 [20]; in the assay on RAW264.7 [21]) was “Active” throughout. Also, the inhibition entry in the assay on RAW264.7 [4], in the assay with RAW264.7 [5] and with RAW264.7 [11] was “Dose-dependent effect” in each case. The inhibition at 1000 µM with RAW264.7 [12] came out at 88.4%; in the assay on RAW264.7 [13], 48.6%; in the assay with RAW264.7 [14] it was 46.2%; in the assay with RAW264.7 [15], 61.7%.
